Reference: ChEMBL document CHEMBL3885861, “Open TG-GATES”

Organism: Rattus norvegicus
Assay: Open TG-GATES - Regimen: Single
Format: toxicity, organism-based, Sprague-Dawley
Parameters: regimen Single, gender Male, age 6 weeks
Details: in vivo, po, 100 mg/kg, route gavage, dose level Low; for APTT / Bas / Eos / Fbg / Hb / Ht / Lym / MCH / MCHC / MCV / Mono / Neu / PT / Plat / RBC / Ret / WBC: tissue Blood; for KIDNEY_L / KIDNEY_R / KIDNEY_TOTAL: tissue Kidney; for LIVER: tissue Liver; for A/G / ALP / ALT / AST / BUN / CRE / Ca / Cl / DBIL / GLC / IP / K / LDH / Na / PL / RALB / TBIL / TC / TG / TP / gamma-GTP: tissue Plasma

SMILES: Cc1nnc2n1-c1ccc(Cl)cc1C(c1ccccc1Cl)=NC2 [TRIAZOLAM]
- TERMINAL_BW (3 h): 192 g
- APTT (3 h): 17.6 s
- Bas (3 h): 0%
- Eos (3 h): 1%
- Fbg (3 h): 279.8 mg/dL
- Hb (3 h): 13.9 g/dL
- Ht (3 h): 42.1%
- Lym (3 h): 75%
- MCH (3 h): 21 pg
- MCHC (3 h): 33%
- MCV (3 h): 63.8 fL
- Mono (3 h): 3%
- Neu (3 h): 20.4%
- PT (3 h): 13.5 s
- Plat (3 h): 121.2 x10_4/uL
- RBC (3 h): 661.2 x10_4/ul
- Ret (3 h): 9.1%
- WBC (3 h): 73.1 x10_2/uL
- KIDNEY_L (3 h): 0.9 g
- KIDNEY_R (3 h): 0.8 g
- KIDNEY_TOTAL (3 h): 1.7 g
- LIVER (3 h): 8 g
- A/G (3 h): 0.9
- ALP (3 h): 1479.6 IU/L
- ALT (3 h): 40.8 IU/L
- AST (3 h): 75.4 IU/L
- BUN (3 h): 9.4 mg/dL
- CRE (3 h): 0.2 mg/dL
- Ca (3 h): 11 mg/dL
- Cl (3 h): 104.2 meq/L
- DBIL (3 h): 0.008 mg/dL
- GLC (3 h): 176.4 mg/dL
- IP (3 h): 10.2 mg/dL
- K (3 h): 4.3 meq/L
- LDH (3 h): 80.4 IU/L
- Na (3 h): 141.4 meq/L
- PL (3 h): 144.4 mg/dL
- RALB (3 h): 2.4 g/dL
- TBIL (3 h): 0.062 mg/dL
- TC (3 h): 75.8 mg/dL
- TG (3 h): 40.6 mg/dL
- TP (3 h): 5.1 g/dL
- gamma-GTP (3 h): 1.4 IU/L
- TERMINAL_BW (6 h): 189.9 g
- APTT (6 h): 19.9 s
- Bas (6 h): 0%
- Eos (6 h): 0.8%
- Fbg (6 h): 284 mg/dL
- Hb (6 h): 13.9 g/dL
- Ht (6 h): 42.5%
- Lym (6 h): 76.8%
- MCH (6 h): 21.1 pg
- MCHC (6 h): 32.6%
- MCV (6 h): 64.7 fL
- Mono (6 h): 2.2%
- Neu (6 h): 19.6%
- PT (6 h): 13.4 s
- Plat (6 h): 121.9 x10_4/uL
- RBC (6 h): 657.4 x10_4/ul
- Ret (6 h): 9.3%
- WBC (6 h): 73 x10_2/uL
- KIDNEY_L (6 h): 0.9 g
- KIDNEY_R (6 h): 0.9 g
- KIDNEY_TOTAL (6 h): 1.7 g
- LIVER (6 h): 8.1 g
- A/G (6 h): 0.9
- ALP (6 h): 1351.6 IU/L
- ALT (6 h): 40.4 IU/L
- AST (6 h): 69.8 IU/L
- BUN (6 h): 7.6 mg/dL
- CRE (6 h): 0.1 mg/dL
- Ca (6 h): 10.9 mg/dL
- Cl (6 h): 104.4 meq/L
- DBIL (6 h): 0.008 mg/dL
- GLC (6 h): 186.2 mg/dL
- IP (6 h): 10.5 mg/dL
- K (6 h): 4.2 meq/L
- LDH (6 h): 70 IU/L
- Na (6 h): 140.8 meq/L
- PL (6 h): 142.8 mg/dL
- RALB (6 h): 2.5 g/dL
- TBIL (6 h): 0.062 mg/dL
- TC (6 h): 78.6 mg/dL
- TG (6 h): 34 mg/dL
- TP (6 h): 5.1 g/dL
- gamma-GTP (6 h): 1.2 IU/L
- TERMINAL_BW (9 h): 190.1 g
- APTT (9 h): 18.1 s
- Bas (9 h): 0%
- Eos (9 h): 1.6%
- Fbg (9 h): 285.4 mg/dL
- Hb (9 h): 13.4 g/dL
- Ht (9 h): 41%
- Lym (9 h): 73.8%
- MCH (9 h): 20.6 pg
- MCHC (9 h): 32.7%
- MCV (9 h): 63 fL
- Mono (9 h): 2.2%
- Neu (9 h): 21.6%
- PT (9 h): 13.7 s
- Plat (9 h): 122.5 x10_4/uL
- RBC (9 h): 651.2 x10_4/ul
- Ret (9 h): 9.4%
- WBC (9 h): 68 x10_2/uL
- KIDNEY_L (9 h): 0.9 g
- KIDNEY_R (9 h): 0.9 g
- KIDNEY_TOTAL (9 h): 1.7 g
- LIVER (9 h): 7.5 g
- A/G (9 h): 0.9
- ALP (9 h): 1617.4 IU/L
- ALT (9 h): 35.8 IU/L
- AST (9 h): 65.4 IU/L
- BUN (9 h): 8.4 mg/dL
- CRE (9 h): 0.1 mg/dL
- Ca (9 h): 10.8 mg/dL
- Cl (9 h): 105 meq/L
- DBIL (9 h): 0.014 mg/dL
- GLC (9 h): 181.8 mg/dL
- IP (9 h): 10.6 mg/dL
- K (9 h): 4.5 meq/L
- LDH (9 h): 68.8 IU/L
- Na (9 h): 141 meq/L
- PL (9 h): 150.6 mg/dL
- RALB (9 h): 2.4 g/dL
- TBIL (9 h): 0.062 mg/dL
- TC (9 h): 75.4 mg/dL
- TG (9 h): 65 mg/dL
- TP (9 h): 5.2 g/dL
- gamma-GTP (9 h): 1 IU/L
- TERMINAL_BW (24 h): 208.4 g
- APTT (24 h): 20.1 s
- Bas (24 h): 0%
- Eos (24 h): 1%
- Fbg (24 h): 279 mg/dL
- Hb (24 h): 13.3 g/dL
- Ht (24 h): 40.5%
- Lym (24 h): 69%
- MCH (24 h): 20.7 pg
- MCHC (24 h): 32.8%
- MCV (24 h): 63.2 fL
- Mono (24 h): 3.2%
- Neu (24 h): 26.2%
- PT (24 h): 13.4 s
- Plat (24 h): 123.8 x10_4/uL
- RBC (24 h): 640.8 x10_4/ul
- Ret (24 h): 8.2%
- WBC (24 h): 109.3 x10_2/uL
- KIDNEY_L (24 h): 0.9 g
- KIDNEY_R (24 h): 0.9 g
- KIDNEY_TOTAL (24 h): 1.8 g
- LIVER (24 h): 9.2 g
- A/G (24 h): 0.9
- ALP (24 h): 1675 IU/L
- ALT (24 h): 41.6 IU/L
- AST (24 h): 68.2 IU/L
- BUN (24 h): 12 mg/dL
- CRE (24 h): 0.2 mg/dL
- Ca (24 h): 11.3 mg/dL
- Cl (24 h): 104.2 meq/L
- DBIL (24 h): 0.01 mg/dL
- GLC (24 h): 183.6 mg/dL
- IP (24 h): 9.4 mg/dL
- K (24 h): 4.1 meq/L
- LDH (24 h): 91 IU/L
- Na (24 h): 141.2 meq/L
- PL (24 h): 158.2 mg/dL
- RALB (24 h): 2.5 g/dL
- TBIL (24 h): 0.06 mg/dL
- TC (24 h): 82.2 mg/dL
- TG (24 h): 83.8 mg/dL
- TP (24 h): 5.4 g/dL
- gamma-GTP (24 h): 1.2 IU/L
